Test results taken from US20230270767A1, “INHIBITORS OF ENPP1 AND METHODS OF USING SAME” (The Regents of the University of California, priority 2017, published 2023).

Legend:
C3H mice = test: Post injury cardiac calcification after cardiac cryo injury in mice (gross inspection, micro CT, biochemical calcium measurement); format: in vivo, mouse; details: for post injury cardiac calcification on gross inspection: ENPP1 inhibitor by continuous infusion (mini pump) for 2 days prior to cardiac injury and 5 days after injury, compared to vehicle; for reduction in calcium deposits in the injured hearts (biochemical measurements): ENPP1 inhibitor by continuous infusion for 2 days prior to and 5 days after injury, p<0.05; for decrease in calcific deposits / calcification on micro CT with 3D reconstruction: ENPP1 inhibitor by continuous infusion for 2 days prior to cardiac injury and 5 days after injury, compared to vehicle treated animals
Excerpt: We next investigated whether cardiac fibroblasts can adopt osteoblast cell like fates in vivo and directly contribute to ectopic calcification of the myocardium. To address this question, we created three murine models of myocardial calcification and determined with lineage trace techniques whether genetically labeled cardiac fibroblasts adopted an osteoblast phenotype and contributed to heart calcification in vivo. Cardiac injury or aging in certain strains of mice (e.g. C3H/HeJ, BALB/cByJ, DBA/2J) can lead to the development of calcification within the myocardium (Glass et al., 2013);(Ivandic et al., 1996);(Korff et al., 2006). We used several different methods to induce myocardial injury in C3H strain of mice. First, we administered high dose systemic steroids daily for 10 days which is known to induce myocyte necrosis (Sparks et al., 1955). […] Finally, ischemic injury of the myocardium by ligating the left anterior descending (LAD) coronary artery, (Korff et al., 2006) led to patchy calcification of the injury region within 4 weeks of ischemic insult (Cell Stem Cell (2017) 20:1-15, the FIGURE). Consistent with the known association of fibrosis and calcification, we observed calcification only in regions where there was fibrosis (identified by Masson trichrome staining) (Cell Stem Cell (2017) 20:1-15, the FIGURE).
Calcification of the extracellular matrix is critically regulated by the balance of extracellular phosphate (Pi) and pyrophosphate (PPi) (Terkeltaub, 2001). Pyrophosphate is generated at the cell surface by the enzyme ectonucleotide pyrophosphatase/phosphodiesterase-1 (ENPP1) that breaks down ATP to AMP and PPi. Pyrophosphate is well recognized to inhibit calcium hydroxyapatite mineralization (Rutsch et al., 2011) in non-skeletal tissues, but in bone and teeth, pyrophosphate promotes mineralization by serving as a substrate for tissue non specific alkaline phosphatase that hydrolyzes pyrophosphate to generate inorganic phosphate (Terkeltaub, 2006). ENPP1 is expressed in osteoblasts, thought to regulate osteoblast maturation and bone mineralization and animals deficient in ENPP1 have decreased mineralization of long bones (Johnson et al., 2003). Considering the importance of ENPP1 in mineralization of the skeleton, we examined whether ENPP1, a gene identified by us to be differentially expressed (by RNA-seq) between calcific and non-calcified cardiac regions was contributing to ectopic cardiac calcification. We first confirmed our observation and subjected C3H mice and B6 mice to cryo-induced cardiac injury. […] Immunostaining for ENPP1 confirmed that ENPP1 was expressed in uninjured B6 hearts (Cell Stem Cell (2017) 20:1-15, the FIGURE) and was more abundant following injury (Cell Stem Cell (2017) 20:1-15, the FIGURE). […] We next determined whether cardiac fibroblasts in the injury region were a source of increased ENPP1 expression. We subjected Col1a2CreERT:R26R^tdTomato mice hearts to cardiac injury and observed abundant expression of ENPP1 by tdTomato labeled cardiac fibroblasts in calcified regions. (Cell Stem Cell (2017) 20:1-15, the FIGURE). Extracellular pyrophosphate generated by ENPP1 can induce mineralization of tissues by precipitating out as calcium pyrophosphate dihydrate (CPPD) or serving as a substrate for phosphate generation and formation of calcium hydroxyapatite. To distinguish between these two, we performed Raman spectroscopy (Chen et al., 2009) and observed that the myocardial calcific deposits comprised calcium hydroxyapatite and not pyrophosphate dihydrate (Cell Stem Cell (2017) 20:1-15, the FIGURE). PPi generated by ENPP1 can be hydrolyzed by tissue non-specific alkaline phosphatase (TNAP) to Pi. The heart is known to express TNAP and we confirmed that both injured and uninjured cardiac tissue is rich in tissue non-specific alkaline phosphatase (TNAP) (Cell Stem Cell (2017) 20:1-15, the FIGURE). […]

C3H animals = test: Echocardiography of cardiac function after cardiac cryo-injury; format: in vivo, mouse
Excerpt: We next investigated the physiologic significance of inhibiting cardiac calcification on cardiac function. In a subset of C3H animals, we performed echocardiography to determine cardiac function prior to cardiac cryo-injury and following administration of etidronate. […] Etidronate had no effect on sham injured hearts (Cell Stem Cell (2017) 20:1-15, the FIGURE).

[1] = post injury, compared to vehicle treated control animals

Row | Compound | post injury cardiac calcification on gross inspection (C3H mice) | reduction in calcium deposits in the injured hearts (biochemical measurements) (C3H mice) | decrease in calcific deposits / calcification on micro CT with 3D reconstruction (C3H mice) | post injury cardiac function (C3H animals; C3H animals, cardiac cryo-injury, echocardiography) | Ejection fraction (C3H animals; following injury) | fractional shortening (C3H animals; following injury) | systolic function (C3H animals; injured animals, echocardiography) | left ventricular end diastolic diameter (LVEDD) (C3H animals; [1]) | left ventricular end systolic diameter (LVESD) (C3H animals; [1]) | effect on sham injured hearts (C3H animals; sham injured hearts) | amount of deposited calcium (C3H mice; administered after the development of calcification, data not shown) | calcification on gross inspection or on CT scans (C3H mice; administered one day prior to cardiac cryo injury and then daily till hearts were harvested) | calcific phenotype (C3H mice; administered one day prior to cardiac cryo injury and then daily till hearts were harvested, vs vehicle injected controls)
1 | CCN(CC)c1ncnc2c1ncn2[C@@H]1O[C@H](COP(=O)([O-])OP(=O)([O-])C(Br)(Br)P(=O)([O-])O)C(O)C1O.[Na+].[Na+].[Na+] (stereo partly shown) [ARL67156] | significantly inhibited calcification | 79% | 85% |  |  |  |  |  |  |  |  |  | 
2 | CC(O)(P(=O)(O)O)P(=O)(O)O [etidronate, etidronic acid] |  |  |  | significant preservation of post injury cardiac function | substantially better | substantially better | better systolic function | significantly decreased | significantly decreased | no effect | did not reverse or decrease the amount of deposited calcium | no calcification was seen | completely rescued the calcific phenotype
3 | O=C(/C=C/c1ccc(O)c(O)c1)O[C@H](Cc1ccc(O)c(O)c1)C(=O)O [SYL-001, rosmarinic acid] | decreased post injury cardiac calcification | 35% | 42% |  |  |  |  |  |  |  |  |  | 
